US11066405B2, “Bicyclic compounds and their use in the treatment of cancer” (Tempest Therapeutics, Inc., priority 2017, dated 2021)

biological target: T1, EP4 (Homo sapiens, UniProt P35408); assay: EP4 Ca2+-flux assay (functional calcium flux assay, stably transfected HEK293 cells); type: cell-based; conditions: HEK293 cells stably transfected with EP4; ligand PGE2 10 nM; luminescence readout
T1 construct: host or cells: HEK293, stably transfected; also expresses a promiscuous G protein and a clytin variant
T1 sequence (P35408 whole entry): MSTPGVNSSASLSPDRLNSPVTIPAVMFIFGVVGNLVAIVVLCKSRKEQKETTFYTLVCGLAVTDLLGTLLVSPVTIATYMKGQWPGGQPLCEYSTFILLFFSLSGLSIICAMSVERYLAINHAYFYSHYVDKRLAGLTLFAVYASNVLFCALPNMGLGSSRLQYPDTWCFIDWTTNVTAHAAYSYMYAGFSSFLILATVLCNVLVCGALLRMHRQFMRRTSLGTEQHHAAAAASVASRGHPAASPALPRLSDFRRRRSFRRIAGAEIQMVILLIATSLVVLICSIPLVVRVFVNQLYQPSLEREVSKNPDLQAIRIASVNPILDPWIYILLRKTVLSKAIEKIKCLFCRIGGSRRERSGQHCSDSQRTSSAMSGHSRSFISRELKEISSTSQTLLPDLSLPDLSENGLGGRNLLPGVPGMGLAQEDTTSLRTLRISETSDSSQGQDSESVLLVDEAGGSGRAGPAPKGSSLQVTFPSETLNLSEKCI
Method: The compounds in the present disclosure were tested in a functional calcium flux assay using stably transfected HEK293 cells. Cells transfected with EP1, EP2, EP3 and EP4 were purchased from Eurofins Discovery Services (St. Charles, Mo.). Each receptor subtype has an additional promiscuous G protein added in order to couple to the calcium signaling pathway. The parental cell line used also expresses a novel variant of clytin, a calcium-activated photo-protein, to enable sensitive luminescent detection.
Cells were plated at 50,000 cells per well in black, clear bottom 96-well plates. The plated cells were allowed to sit at room temperature for 30 min prior to transferring to a humidified, 37° C., 5% CO2 incubator for 18-24 h. Assay buffer (HBSS with 20 mM HEPES) and loading buffer (assay buffer plus 10 μM Coelenterazine) were prepared on the day of the assay. Assays were performed by aspirating media from the assay plate and washing once with assay buffer, then replacing with loading buffer and allowing the cells to incubate for 1.5 h at room temperature. Compounds were prepared in assay buffer at a 3× final concentration in non-binding plates. Compounds were added to the cell plates and incubated for 30 min at room temperature. The prostanoid receptor ligand PGE2 was prepared at a 4× dilution ratio for a final concentration of 10 nM. Plates were run on a Flexstation™ using a 100 ms integration luminescence protocol for a total of 60 sec with ligand addition at 15 sec. Data were obtained from relative light units as measured by area under the curve.

Structure (SMILES) | IC50
CC1(NC(=O)c2cccc3ccn(Cc4ccc(C(F)(F)F)cc4)c23)CC(CCC(=O)O)C1 (stereo not drawn) [Example 15, cis-3-(3-methyl-3-(1-(4-(trifluoromethyl)benzyl)-1H-indole-7-carboxamido)cyclobutyl)propanoic Acid] | 400 nM
O=C(O)CC12CC(NC(=O)c3cccc4cnn(Cc5ccc(C(F)(F)F)cc5)c34)(C1)C2 [Example 6, 2-(3-(1-(4-(trifluoromethyl)benzyl)-1H-indazole-7-carboxamido)bicyclo[1.1.1]pentan-1-yl)acetic Acid] | 19 nM
O=C(O)CC12CC(NC(=O)c3ccnc4ccn(Cc5ccc(C(F)(F)F)cc5)c34)(C1)C2 [Example 3, 2-(3-(1-(4-(trifluoromethyl)benzyl)-1H-pyrrolo[3,2-b]pyridine-7-carboxamido)bicyclo[1.1.11]pentan-1-yl)acetic Acid] | 160 nM
O=C(O)CC12CC(NC(=O)c3cccc4ccn(Cc5ccc(C(F)(F)F)cc5)c34)(C1)C2 [Example 2, 2-(3-(1-(4-(trifluoromethyl)benzyl)-1H-indole-7-carboxamido)bicyclo[1.1.1]pentan-1-yl)acetic Acid] | 1.5 nM
O=C(O)C[C@]12C[C@](NC(=O)c3cccc4cnn(Cc5ccc(OC(F)(F)F)cc5)c34)(C1)C2 [Example 37, 2-(3-(1-(4-(trifluoromethoxy)benzyl)-1H-indazole-7-carboxamido)bicyclo[1.1.1]pentan-1-yl)acetic Acid] | 75 nM
O=C(O)C[C@]12C[C@](NC(=O)c3cccc4cnn(Cc5ccc(-c6ccccc6)cc5)c34)(C1)C2 [Example 36, 2-(3-(1-([1,1′-biphenyl]-4-ylmethyl)-1H-indazole-7-carboxamido)bicyclo[1.1.1]pentan-1-yl)acetic Acid] | 0.32 nM
O=C(NC1CC2(C1)CC(C(=O)O)C2)c1cc(F)cc2ccn(Cc3ccc(C(F)(F)F)cc3)c12 (racemic) [Example 21, rac-6-(5-fluoro-1-(4-(trifluoromethyl)benzyl)-1H-indole-7-carboxamido)spiro heptane-2-carboxylic Acid] | 0.31 nM
O=C(O)CC12CCC(NC(=O)c3cccc4ccn(Cc5ccc(C(F)F)cc5)c34)(C1)C2 [Example 26, 2-(4-(1-(4-(difluoromethyl)benzyl)-1H-indole-7-carboxamido)bicyclo[2.1.1]hexan-1-yl)acetic Acid] | 3.8 nM
O=C(NC1CC2(C1)CC(C(=O)O)C2)c1cccc2ncn(Cc3ccc(C(F)(F)F)cc3)c12 (racemic) [Example 13, rac-6-(1-(4-(trifluoromethyl)benzyl)-1H-benzo[d]imidazole-7-carboxamido) spiro[3.3]heptane-2-carboxylic Acid] | 32 nM
O=C(NCC12CC(NC(=O)c3cccc4ccn(Cc5ccc(C(F)(F)F)cc5)c34)(C1)C2)NS(=O)(=O)c1ccccc1 [Example 17, N-(3-((3-(phenylsulfonyl)ureido)methyl)bicyclo[1.1.1]pentan-1-yl)-1-(4-(trifluoromethyl)benzyl)-1H-indole-7-carboxamide] | 130 nM
O=C(O)C[C@]12C[C@](NC(=O)c3ccc(F)c4ccn(Cc5ccc(C(F)F)cc5)c34)(C1)C2 [Example 32, 2-(3-(1-(4-(difluoromethyl)benzyl)-4-fluoro-1H-indole-7-carboxamido)bicyclopentan-1-yl)acetic Acid] | 0.1 nM
O=C(NC12CC(Cc3nnn[nH]3)(C1)C2)c1cccc2ccn(Cc3ccc(C(F)(F)F)cc3)c12 [Example 18, N-(3-((1H-tetrazol-5-yl)methyl)bicyclo[1.1.1]pentan-1-yl)-1-(4-(trifluoromethyl)benzyl)-1H-indole-7-carboxamide] | 1.5 nM
O=C(NC1CC2(C1)CC(C(=O)O)C2)c1nccc2ccn(Cc3ccc(C(F)(F)F)cc3)c12 (racemic) [Example 11, rac-6-(1-(4-(trifluoromethyl)benzyl)-1H-pyrrolo[2,3-c]pyridine-7-carboxamido)spiro[3.3]heptane-2-carboxylic Acid] | 24 nM
O=C(O)CC12CCC(NC(=O)c3cccc4ccn(Cc5ccc(C(F)(F)F)cc5)c34)(C1)C2 [Example 19, 2-(4-(1-(4-(trifluoromethyl)benzyl)-1H-indole-7-carboxamido)bicyclo[2.1.1]hexan-1-yl)acetic Acid] | 9.1 nM
O=C(NC1CC2(C1)CC(C(=O)O)C2)c1ccc(F)c2ccn(Cc3ccc(C(F)F)cc3)c12 (racemic) [Example 31, rac-6-(1-(4-(difluoromethyl)benzyl)-4-fluoro-1H-indole-7-carboxamido)spiro heptane-2-carboxylic Acid] | 0.03 nM
O=C(O)CC12CCC(NC(=O)c3ccc(F)c4ccn(Cc5ccc(C(F)(F)F)cc5)c34)(C1)C2 [Example 28, 2-(4-(4-fluoro-1-(4-(trifluoromethyl)benzyl)-1H-indole-7-carboxamido)bicyclohexan-1-yl)acetic Acid] | 0.6 nM
O=C(O)C[C@]12C[C@](NC(=O)c3ccc(F)c4ccn(Cc5ccc(-c6ccccc6)cc5)c34)(C1)C2 [Example 35, 2-(3-(1-([1,1′-biphenyl]-4-ylmethyl)-4-fluoro-1H-indole-7-carboxamido)bicyclo[1.1.11]pentan-1-yl)acetic Acid] | 0.28 nM
O=C(NC1CC2(C1)CC(C(=O)O)C2)c1cccc2cnn(Cc3ccc(C(F)(F)F)cc3)c12 (racemic) [Example 12, rac-6-(1-(4-(trifluoromethyl)benzyl)-1H-indazole-7-carboxamido)spiro[3.3]heptane-2-carboxylic Acid] | 2.7 nM
O=C(NC1CC2(C1)CC(C(=O)O)C2)c1cccc2ccn(Cc3ccc(S(F)(F)(F)(F)F)cc3)c12 (racemic) [Example 30, rac-6-(1-((4-(pentafluorothiol)phenyl)methyl)-1H-indole-7-carboxamido)spiro heptane-2-carboxylic Acid] | 0.2 nM
O=C(CC12CC(NC(=O)c3cccc4ccn(Cc5ccc(C(F)(F)F)cc5)c34)(C1)C2)NS(=O)(=O)c1ccccc1 [Example 16, N-(3-(2-oxo-2-(phenylsulfonamido)ethyl)bicyclo[1.1.1]pentan-1-yl)-1-(4-(trifluoromethyl)benzyl)-1H-indole-7-carboxamide] | 140 nM
O=C(NC1CC2(C1)CC(C(=O)O)C2)c1c(F)ccc2ccn(Cc3ccc(C(F)(F)F)cc3)c12 (racemic) [Example 23, rac-6-(6-fluoro-1-(4-(trifluoromethyl)benzyl)-1H-indole-7-carboxamido)spiro heptane-2-carboxylic Acid] | 0.3 nM
O=C(O)CC12CCC(NC(=O)c3cccc4ccn(Cc5ccc(S(F)(F)(F)(F)F)cc5)c34)(C1)C2 [Example 29, 2-(4-(1-((4-(pentafluorothiol)phenyl)methyl)-1H-indole-7-carboxamido)bicyclohexan-1-yl)acetic Acid] | 1.2 nM
N#Cc1ccc(Cn2ccc3cccc(C(=O)NC45CC(CC(=O)O)(C4)C5)c32)cc1 [Example 1, 2-(3-(1-(4-cyanobenzyl)-1H-indole-7-carboxamido)bicyclo[1.1.1]pentan-1-yl) acetic Acid] | 13 nM
O=C(NC1CC2(C1)CC(C(=O)O)C2)c1ccnc2ccn(Cc3ccc(C(F)(F)F)cc3)c12 (racemic) [Example 9, rac-6-(1-(4-(trifluoromethyl)benzyl)-1H-pyrrolo[3,2-b]pyridine-7-carboxamido) spiro[3.3]heptane-2-carboxylic Acid] | 6 nM
[2H]C([2H])(c1ccc(C(F)(F)F)cc1)n1ccc2cccc(C(=O)NC34CC(CC(=O)O)(C3)C4)c21 [Example 7, 2-(3-(1-((4-(trifluoromethyl)phenyl)methyl-d2)-1H-indole-7-carboxamido)bicyclo[1.1.1]pentan-1-yl)acetic Acid] | 2 nM
O=C(NC1CC2(C1)CC(C(=O)O)C2)c1cccc2ccn(Cc3ccc(C(F)F)cc3)c12 (racemic) [Example 25, rac-6-(1-(4-(difluoromethyl)benzyl)-1H-indole-7-carboxamido)spiro[3.3] heptane-2-carboxylic Acid] | 0.4 nM
O=C(O)CC12CC(NC(=O)c3nccc4ccn(Cc5ccc(C(F)(F)F)cc5)c34)(C1)C2 [Example 5, 2-(3-(1-(4-(trifluoromethyl)benzyl)-1H-pyrrolo[2,3-c]pyridine-7-carboxamido)bicyclo[1.1.1]pentan-1-yl)acetic Acid] | 930 nM
O=C(O)C[C@]12C[C@](NC(=O)c3cc(F)cc4ccn(Cc5ccc(C(F)(F)F)cc5)c34)(C1)C2 [Example 33, 2-(3-(5-fluoro-1-(4-(trifluoromethyl)benzyl)-1H-indole-7-carboxamido)bicyclopentan-1-yl)acetic Acid] | 0.1 nM
N#Cc1ccc(Cn2ccc3cccc(C(=O)NC4CC5(C4)CC(C(=O)O)C5)c32)cc1 (racemic) [Example 24, rac-6-(1-(4-cyanobenzyl)-1H-indole-7-carboxamido)spiro[3.3]heptane-2-carboxylic Acid] | 10 nM
O=C(O)C[C@]12C[C@](NC(=O)c3cccc4ccn(Cc5ccc(-c6ccccc6)cc5)c34)(C1)C2 [Example 34, 2-(3-(1-([1,1′-biphenyl]-4-ylmethyl)-1H-indole-7-carboxamido)bicyclo[1.1.1]pentan-1-yl)acetic Acid] | 0.22 nM
